From patent US11421010B2, “T cells expressing membrane-anchored IL-12 for the treatment of cancer” (Board of Regents, The University of Texas System, priority 2016, dated 2022)

How the values were obtained:
Lck/JAK/STAT3 signaling [1] = test: NKG2D expression with CD80-Fc plus inhibitors of STAT3 activation, human CD8^+ T cells; assay type: cell-based; details: 24 h
Experimental: (§1) FIGS. 24A-24B: Blockade of Lck/JAK/STAT3 signaling abolishes CD28 activation-mediated induction of NKG2D expression on mouse and human CD8^+ T cells. (A, B) Mouse (A) and human (B) CD8^+ T cells were stimulated with anti-CD3 microbeads and treated with control Fc or CD80-FC in the presence or absence of the pharmacologic inhibitor JSI-124, PP2, or AG-490 for 24 h. The CD80+ vehicle has the highest expression of NKG2D. NKG2D expression on the surface of CD8^+ T cells was measured using flow cytometry. The bar graphs show the median (±SEM) MFI of NKG2D (n=3). The data are representative of three repeated experiments.
(§2) If NKG2D expression is induced by CD80-Fc-based treatment via pSTAT3, inhibition of any upstream activators of STAT3 should abrogate NKG2D induction. A time course study was performed to assess the toxicity of the pharmacologic inhibitors to mouse and human CD8^+ T cells. […] Therefore, to test the hypothesis, mouse and human CD8^+ T cells were enriched and treated with control Fc, CD80-Fc plus control vehicle, or CD80-Fc plus inhibitors of STAT3 activation, including PP2, AG490, and JSI-124, for 24 h.

Lck/JAK/STAT3 signaling [2] = test: NKG2D expression with CD80-Fc plus inhibitors of STAT3 activation, mouse CD8^+ T cells; assay type: cell-based; details: 24 h
Experimental: as §1, §2

STAT3 [3] = test: Immunoblot of pSTAT3 with pharmacologic inhibitors, mouse CD8^+ T cells; assay type: cell-based; details: PP2 (1 nM); 1 h
Experimental: (§3) FIG. 23: Elevated STAT3 phosphorylation resulting from CD80 binding-mediated CD28 activation via the tyrosine kinase Lck/JAK/STAT3 signaling pathway. The effect of CD28 activation and treatment with pharmacologic inhibitors on the expression of pSTAT, total STAT, and b-actin according to immunoblot assay. Mouse and human CD8^+ T cells were stimulated with anti-CD3 microbeads and treated with ctrl Fc or CD80-Fc in the presence or absence of the pharmacologic inhibitor JSI-124 […], PP2 (1 nM), or AG-490 ([…]) for 24 h. Vehicle control is included. The intensity quantification shown ([…]/intensity of β-actin) represents the mean intensity from three repeated experiments.
(§4) Because NKG2D expression on NK cells is regulated by pSTAT3, the next question was whether pSTAT3 expression is induced in CD8^+ T cells by activation of CD28. To address this question, the pSTAT3 expression was measured in both mouse and human CD8^+ T cells after incubation with control IgG or CD80-Fc for 15 and 30 min, as well as 1 and 2 h via intracellular flow cytometric staining. […] Given that CD28 activation in CD8^+ T cells results in STAT3 phosphorylation, it was sought to determine how CD28 activates JAK/STAT3 signaling in CD8^+ T cells. In these cells, the co-stimulatory receptor CD28 strengthens TCR signaling via sustained activation of the tyrosine kinase Lck which in turn recruits and activates ZAP70. […] Thus a pharmacologic model was established to determine whether Lck/ZAP70, as an upstream kinase cascade, activates STAT3 in CD8^+ T cells. Mouse and human CD8^+ T cells were enriched (FIG. 29) and stimulated with anti-CD3 microbeads and incubated with control IgG or CD80-Fc in the presence or absence of the pharmacologic inhibitor PP2, AG-490, or JSI-124 for 1 h. PP2 was employed because it is a specific Src-family kinase inhibitor sensitive to blockade of Lck activation. Also, AG-490 can inhibit activation of JAK/STAT3 signaling. […] To validate the crucial role of pSTAT3, the expression of pSTAT1 and pSTAT5 was also assessed. […]

STAT3 [4] = test: Immunoblot of pSTAT3 with pharmacologic inhibitors, human CD8^+ T cells; assay type: cell-based; details: PP2 (1 nM); 1 h
Experimental: as §3, §4

LLC cells = test: Cytotoxic T-lymphocyte assay against CFSE-labeled LLC cells; assay type: cell-based, mouse; details: E:T 5:1, 10:1, 25:1, 5 h
Experimental: FIGS. 25A-25D: Augmentation of CD8^+ T-cell antitumor cytolytic activity by treatment with CD80-Fc. (A-C) Induction of antitumor cytolytic activity by mouse CD8^+ T cells after exposure to Rae-1^+ LLC cells. Splenocytes were collected from LLC-bearing mice on day 14 after tumor-cell inoculation. CD8^+ T cells were isolated from splenocytes and treated with control Fc or CD80-Fc in the presence or absence of an anti-NKG2D antibody or JSI-124 for 24 h. (A) CD8^+ T cells were co-incubated with CFSE-labeled LLC cells at a ratio of 25:1 (E:T) for 5 h. The cell culture medium was subjected to ELISA analysis of perforin. The bar graphs show the median (±SEM) normalized concentration of perforin (n=3). (B) Flow cytometry analysis of NKG2D ligand Rae-1 expression on LLC tumor cells. (C) CD8^+ T cells were co-incubated with CFSE-labeled LLC cells at ratios of 5:1, 10:1, and 25:1 (E:T) for 5 h. […] Survival of the target cells was measured as the percentage of normalized target cells that remained after incubation with CD8^+ T cells. […]
Because increased perforin expression by immune cells often indicates enhanced antitumor cytolytic activity, the cytotoxic T-lymphocyte activity of mouse CD8^+ T cells was measured after CD80-Fc-based treatment. […] The survival of target cells was determined as the percentage of normalized target cells that remained after incubation with CD8^+ T cells. […]

mouse CD8^+ T cells = test: CD8^+ T cell viability after JSI-124 (7-AAD), mouse; assay type: cell-based; details: 48 h, JSI-124 0.1 μM, versus vehicle control
Experimental: (§5) FIGS. 30A-30B: CD8^+ T cell viability after JSI-124 treatment. Freshly enriched mouse (A) and human (B) CD8^+ T cells were treated with vehicle control or JSI-124 (0.1 μM) for 1, 2, 3, and 4 days. Cell viability was assessed after 7-AAD staining via flow cytometry.
as §2

K562 cells = test: Degranulation assay (CD107a), human CD8^+ T cells exposed to K562 cells; assay type: cell-based; details: after exposure to target cells, ratio 1:1, 4 h
Experimental: (§6) FIGS. 25A-25D: Augmentation of CD8^+ T-cell antitumor cytolytic activity by treatment with CD80-Fc. (A-C) Induction of antitumor cytolytic activity by mouse CD8^+ T cells after exposure to Rae-1^+ LLC cells. Splenocytes were collected from LLC-bearing mice on day 14 after tumor-cell inoculation. CD8^+ T cells were isolated from splenocytes and treated with control Fc or CD80-Fc in the presence or absence of an anti-NKG2D antibody or JSI-124 for 24 h. (A) CD8^+ T cells were co-incubated with CFSE-labeled LLC cells at a ratio of 25:1 (E:T) for 5 h. The cell culture medium was subjected to ELISA analysis of perforin. The bar graphs show the median (±SEM) normalized concentration of perforin (n=3). (B) Flow cytometry analysis of NKG2D ligand Rae-1 expression on LLC tumor cells. (C) CD8^+ T cells were co-incubated with CFSE-labeled LLC cells at ratios of 5:1, 10:1, and 25:1 (E:T) for 5 h. After incubation, the cells were stained with PI (1 mg/mL). […] Survival of the target cells was measured as the percentage of normalized target cells that remained after incubation with CD8^+ T cells. […]
(§7) In a similar manner, the cytolytic activity of human CD8^+ T cells was assessed in terms of their degranulation upon CD28 activation. The ability of CD8^+ T cells to undergo degranulation was evaluated in response to exposure to target tumor cells by the induction of cell surface marker CD107a. […]

[5] = as above; assay type: cell-based; details: 24 h treatment
Experimental: as §6, §7

human CD8^+ T cells = test: CD8^+ T cell viability after JSI-124 (7-AAD), human; assay type: cell-based; details: 48 h, JSI-124 0.1 μM, versus vehicle control
Experimental: as §5, §2

| SMILES | NKG2D expression on CD8^+ T cells (Lck/JAK/STAT3 signaling [1]) | NKG2D expression on CD8^+ T cells (Lck/JAK/STAT3 signaling [2]) | phosphorylation of STAT3 in response to CD80-Fc (STAT3 [3]) | phosphorylation of STAT3 in response to CD80-Fc (STAT3 [4]) | cytolytic activity against LLC cells (LLC cells) | cell viability (mouse CD8^+ T cells) | degranulation (CD107a) (K562 cells) | NKG2D expression [5] | cell viability (human CD8^+ T cells) |
| --- | --- | --- | --- | --- | --- | --- | --- | --- | --- |
| N#C/C(=C/c1ccc(O)c(O)c1)C(=O)NCc1ccccc1 [AG-490] | dramatic decreases | dramatic decreases | completed abolished | completed abolished |  |  |  |  |  |
| CC(C)(C)n1nc(-c2ccc(Cl)cc2)c2c(N)ncnc21 [PP2] | dramatic decreases | dramatic decreases | completed abolished | completed abolished |  |  |  |  |  |
| CC(C)(O)/C=C/C(=O)[C@](C)(O)[C@H]1[C@H](O)C[C@@]2(C)[C@@H]3CC=C4[C@@H](C=C(O)C(=O)C4(C)C)[C@]3(C)C(=O)C[C@]12C [JSI-124] | dramatic decreases | dramatic decreases | completed abolished | completed abolished | impaired the cytolytic activity | markedly decreased | reduced degranulation | abolished NKG2D expression | markedly decreased |
